According to article PMC6865181, “Role of L-Type Amino Acid Transporter 1 (LAT1) for the Selective Cytotoxicity of Sesamol in Human Melanoma Cells” (Molecules, 2019):
Read-outs that look alike come from different tables or passages of the source. Marks after values point to notes of the source that are not given here.

Tests used:
[1] = stated in the introduction without reference; cited from earlier work
SK-MEL-2 cells [2] = experiment: Time-course of sesamol cellular uptake (distribution) in SK-MEL-2 cells; assay type: in vitro ADME, human
Experimental: (§1) The cells were used for the following experiments.
(§2) The cells were exposed to 1 mM (200 µL) sesamol and incubated at 37 °C at various times (0.5, 1, 3, 5, 10, and 15 min). The media was plated into 96-well plates prior to measuring the extracellular sesamol content by HPLC analysis. […] The sesamol content in 20 µL of cell lysate was quantified using HPLC assay as described in the analytical procedure.
(§3) The cellular uptake of sesamol was determined based on the sesamol content in cells (nmol/mg protein) to medium (nmol/µL) (expressed as C/M ratio, µL/mg protein). The linear regression of the C/M ratio from 0.5 to 3 min was performed (r^2 > 0.90); to give the initial distribution volume (µL/mg protein) from the y-intercept, and the initial uptake clearance (µL/min/mg protein) from the slope.

Vero cells [3] = experiment: Antiproliferative effect, neutral red uptake assay, Vero cells; assay type: cell-based, African green monkey; settings: Vero cells, 24 h exposure, neutral red; read-out: IC50 (cell viability)
Experimental: (§4) The SK-MEL-2 and Vero cells (at 5 × 10^4 cells/well) were seeded separately into 96-well plates. After the cells were exposed to the tested compounds (200 µL) for 24 h, neutral red (50 µg/mL) (Sigma-Aldrich, St. Louis, MO, USA) was incorporated into the cells for 2 h. The cells were then washed with ice-cold PBS and lysed using 0.33% HCl in isopropanol. The absorbances of neutral red were measured at 540 nm with a reference wavelength of 660 nm using a UV-microplate reader (Perkin Elmer, Waltham, MA, USA). […] The selective index was calculated from the ratio of the IC50 of Vero and SK-MEL-2 cells.

LAT1 [4] = target: T1, LAT1 (Homo sapiens, UniProt Q01650); experiment: LAT1 function: competitive uptake of L-dopa in SK-MEL-2 cells; assay type: cell-based; settings: SK-MEL-2, L-dopa 0.1 mM, 10 min
Experimental: (§5) SK-MEL-2 and Vero cells were seeded separately into 24-well plates at 2 × 10^5 cells/well for 24 h. The media was removed, and the cells pre-incubated with HBSS pH 7.4 for 10 min. The cells were used for the following experiments.
(§6) Sesamol was also investigated for its affinity to LAT1. […] Competitive uptake was performed for 10 min then the cells were washed twice with ice-cold PBS. The L-dopa was solubilized by 0.1 M HCl and the cell lysate (25 µL) was pipetted for protein determination. […] Intracellular and extracellular L-dopa was quantified by the HPLC assay. The L-dopa uptake was represented as the distribution volume of L-dopa in a cell to media ratio (C/M ratio) as calculated in Section 4.3.1.
The analysis was based on a BDS Hypersil C-18 column, (4.6 × 250 mm, 5 µm packing, Thermo Fisher Scientific, Waltham, MA, USA). The column temperature was set at 30 °C with a flow rate of 0.8 mL/min. The mobile phase for sesamol quantification was 70% methanol in water, vs. 20% methanol in water for L-dopa. […] The validated sesamol quantification conducted using sesamol spiked cell lysate with high selectivity and clear separation from the endogenous cell lysate as previously reported. The % bias and % precision was determined within and between days, each was maintained below 6%.

SK-MEL-2 cells [5] = experiment: Uptake kinetics of sesamol at 37 °C and 4 °C in SK-MEL-2 cells; settings: for Pd (sesamol passive diffusion) / Vmax (sesamol uptake) / Km: 1 min; for Km: read-out: Km (sesamol uptake)
Experimental: as §5
(§7) The cells were pre-incubated with HBSS pH 7.4 at 37 °C and at 4 °C both for 10 min. The cells were treated with sesamol (200 µL; range, 31.5 to 1,000 μM) and incubated under each condition for another 1 min, to exclude the influence of efflux or metabolism processes as per the previous report. The uptake process at 37 °C represented the total uptake of sesamol in the cells, including both carrier-mediated transport and passive transport; whereas the uptake process at 4 °C represented mainly passive transport.
(§8) The uptake kinetics was fitted using Michaelis-Menten kinetics (non-linear least square kinetics model) (r^2 > 0.90) Equation (1) that allowed estimation of Vmax, Km, and Pd values.
(§9) V = (Vmax × [S])/(Km + [S]) + Pd × [S](1)
(§10) V = uptake velocity at a certain amount of substrate (nmol/min/mg protein)
(§11) Vmax = maximum uptake velocity (nmol/min/mg protein)
(§12) [S] = concentration of sesamol at extracellular compartment (µM)
(§13) Km = concentration of sesamol at half of Vmax (µM)
(§14) Pd = passive lipoidal diffusion uptake rate (µL/min/mg protein)
(§15) The rate to reach total uptake clearance of carrier-mediated transport was obtained from the ratio of Vmax to Km (µL/min/mg protein). The total uptake clearance of the process (µL/min/mg protein) was obtained from (Vmax /Km) + Pd.

LAT1 [6] = settings: Vero cells; sesamol 0.1 mM, uptake equilibrium 10 min
Experimental: as §5
(§16) Competitive inhibition of uptake of sesamol was done in both SK-MEL-2 and the Vero cells. […] The cells were washed twice with ice-cold PBS, solubilized in methanol, and centrifuged at 2400× g, at 4 °C for 20 min. The precipitated protein was re-solubilized by 0.1 M NaOH prior to protein determination. The sesamol content was quantified using HPLC assay. The cellular uptake of sesamol was calculated as per the C/M ratio.
(§17) Quantitative analysis of sesamol and L-dopa were performed using a Shimadzu HPLC (LC-2030C-3D) with a UV photodiode array detector (DAD) (Kyoto, Japan). The analysis was based on a BDS Hypersil C-18 column, (4.6 × 250 mm, 5 µm packing, Thermo Fisher Scientific, Waltham, MA, USA). The column temperature was set at 30 °C with a flow rate of 0.8 mL/min. The mobile phase for sesamol quantification was 70% methanol in water, vs. 20% methanol in water for L-dopa. The respective detection wavelength and elution time for sesamol and L-dopa was 297 nm and 280 nm and 4.2 and 4.5 min. The validated sesamol quantification conducted using sesamol spiked cell lysate with high selectivity and clear separation from the endogenous cell lysate as previously reported. The % bias and % precision was determined within and between days, each was maintained below 6%.

LAT1 [7] = target: T1, LAT1; experiment: cell-based; settings: SK-MEL-2; sesamol 0.1 mM, uptake equilibrium 10 min
Experimental: as §5, §16, §17

LAT1 [8] = experiment: LAT1 function: competitive uptake of L-dopa in Vero cells; assay type: cell-based, African green monkey; settings: L-dopa 0.1 mM, 10 min
Experimental: as §5, §6, §17

Vero cells [9] = experiment: Time-course of sesamol cellular uptake (distribution) in Vero cells; assay type: in vitro ADME, African green monkey
Experimental: as §1, §2, §3

SK-MEL-2 cells [10] = experiment: Antiproliferative effect, neutral red uptake assay, SK-MEL-2 cells; assay type: cell-based, human
Experimental: as §4

Vero cells [11] = experiment: Uptake kinetics of sesamol at 37 °C and 4 °C in Vero cells; settings: for Pd (sesamol passive diffusion) / Vmax (sesamol uptake): 1 min
Experimental: as §5, §7, §8, §9, §10, §11, §12, §13, §14, §15

[12] = 1 mM sesamol, 37 °C, linear regression 0.5-3 min
[13] = competitor (BCH, L-tyrosine, sesamol 1 mM; L-leucine, L-alanine 2 mM; melphalan 0.05 mM)
[14] = competitor at the concentration printed in the row

T1 sequence (Q01650 whole entry): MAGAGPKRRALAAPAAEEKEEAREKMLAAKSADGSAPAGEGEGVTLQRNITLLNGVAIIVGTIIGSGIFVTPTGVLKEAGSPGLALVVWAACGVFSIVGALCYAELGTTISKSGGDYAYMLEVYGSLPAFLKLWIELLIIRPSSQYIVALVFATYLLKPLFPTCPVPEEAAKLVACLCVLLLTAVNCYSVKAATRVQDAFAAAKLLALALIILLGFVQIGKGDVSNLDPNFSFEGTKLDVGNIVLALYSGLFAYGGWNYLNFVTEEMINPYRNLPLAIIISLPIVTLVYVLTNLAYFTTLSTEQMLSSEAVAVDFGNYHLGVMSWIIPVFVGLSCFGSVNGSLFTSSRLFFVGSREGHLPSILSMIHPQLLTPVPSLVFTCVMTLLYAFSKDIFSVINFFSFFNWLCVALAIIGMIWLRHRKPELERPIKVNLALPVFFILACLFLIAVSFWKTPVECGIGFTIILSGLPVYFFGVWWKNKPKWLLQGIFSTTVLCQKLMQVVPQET
T1 sequence (P08195 102-630 partner): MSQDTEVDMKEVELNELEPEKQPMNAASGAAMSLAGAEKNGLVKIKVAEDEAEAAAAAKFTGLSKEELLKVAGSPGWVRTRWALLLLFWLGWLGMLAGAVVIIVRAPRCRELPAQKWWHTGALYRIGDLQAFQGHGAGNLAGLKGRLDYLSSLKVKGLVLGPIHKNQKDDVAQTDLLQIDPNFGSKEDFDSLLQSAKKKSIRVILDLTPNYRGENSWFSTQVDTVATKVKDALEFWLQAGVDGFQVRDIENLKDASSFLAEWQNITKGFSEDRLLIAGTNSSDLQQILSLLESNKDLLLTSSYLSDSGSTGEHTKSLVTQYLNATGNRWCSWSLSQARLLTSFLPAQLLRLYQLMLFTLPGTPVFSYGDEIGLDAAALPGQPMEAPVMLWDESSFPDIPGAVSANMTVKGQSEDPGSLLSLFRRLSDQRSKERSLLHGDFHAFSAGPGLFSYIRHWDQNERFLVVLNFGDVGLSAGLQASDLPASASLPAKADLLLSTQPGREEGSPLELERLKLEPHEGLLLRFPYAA

Oc1ccc2c(c1)OCO2 [Sesamol]
logP [1]: 1.29 | initial distribution volume (SK-MEL-2 cells [2]; [12]): 6.0 ± 0.4 µL/mg protein | initial uptake clearance (SK-MEL-2 cells [2]; [12]): 2.6 ± 0.1 µL/min/mg protein | suppression of sesamol uptake at 4 °C compared to 37 °C (SK-MEL-2 cells [2]; 30 s): 45% | time at which sesamol uptake reached a steady state (SK-MEL-2 cells [2]; 37 °C): approximately 10 min | suppression of sesamol uptake at 4 °C compared to 37 °C (SK-MEL-2 cells [2]; 1 min): 61% | IC50 (Vero cells [3]): 6.7 ± 0.2 mM | Percent Inhibition of L-Dopa Distribution Volume (LAT1 [4]; [13]): 44% | L-Dopa Distribution Volume in presence of the compound (LAT1 [4]; [14]): 207.6 ± 31.5 µL/mg Protein | carrier-mediated uptake clearance in SK-MEL-2 cells relative to Vero cells (SK-MEL-2 cells [5]; 37 °C): 3.4 fold | Pd (sesamol passive diffusion) (SK-MEL-2 cells [5]; SK-MEL-2, 4 °C): 2.7 ± 0.1^a µL/min/mg | Vmax (sesamol uptake) (SK-MEL-2 cells [5]; SK-MEL-2, 4 °C): 0.3 ± 0.1^b nmol/min/mg | Pd (passive diffusion of sesamol) (SK-MEL-2 cells [5]; SK-MEL-2, 37 °C): 2.3 ± 0.2 µL/min/mg protein | Vmax (carrier-mediated transport of sesamol) (SK-MEL-2 cells [5]; SK-MEL-2, 37 °C): 4.2 ± 0.1 nmol/min/mg protein | carrier-mediated transport as share of total uptake clearance (SK-MEL-2 cells [5]; SK-MEL-2, 37 °C): 89% | Pd (sesamol passive diffusion) (SK-MEL-2 cells [5]; SK-MEL-2, 37 °C, sesamol alone): 2.3 ± 0.2^b µL/min/mg | Vmax (sesamol uptake) (SK-MEL-2 cells [5]; SK-MEL-2, 37 °C, sesamol alone): 4.2 ± 0.1^a nmol/min/mg | Km (SK-MEL-2 cells [5]; SK-MEL-2, 4 °C): 26.8 ± 9.8 µM | Km (SK-MEL-2 cells [5]; SK-MEL-2, 37 °C, sesamol alone): 225 ± 19.3 µM | Sesamol Distribution Volume, control (no competitor) (LAT1 [6]): 0% (17.9 ± 1.7)^a µL/mg Protein | Sesamol Distribution Volume, control (no competitor) (LAT1 [7]): 0% (23.2 ± 2.1)^a µL/mg Protein | Percent Inhibition of L-Dopa Distribution Volume (LAT1 [8]; [13]): 33% | L-Dopa Distribution Volume in presence of the compound (LAT1 [8]; [14]): 103.9 ± 9.2 µL/mg Protein | initial distribution volume (Vero cells [9]; [12]): 5.7 ± 0.4 µL/mg protein | initial uptake clearance (Vero cells [9]; [12]): 1.3 ± 0.2 µL/min/mg protein | reduction in sesamol distribution volume at 4 °C compared to 37 °C (Vero cells [9]; 30 s): 33% | time at which sesamol uptake reached a steady state (Vero cells [9]; 37 °C): about 5 min | reduction in sesamol distribution volume at 4 °C compared to 37 °C (Vero cells [9]; 1 min): 23% | Selective Index (SK-MEL-2 cells [10]): 3.4 | IC50 (SK-MEL-2 cells [10]; SK-MEL-2, 24 h exposure, neutral red, read-out: IC50 (cell viability)): 2 ± 0.1 mM | Pd (sesamol passive diffusion) (Vero cells [11]; 4 °C): 2.4 ± 0.3^a µL/min/mg | Vmax (sesamol uptake) (Vero cells [11]; 4 °C): 0.4 ± 0.1^b nmol/min/mg | Pd (passive diffusion of sesamol) (Vero cells [11]; 37 °C): 2.1 ± 0.1 µL/min/mg protein | Vmax (carrier-mediated transport of sesamol) (Vero cells [11]; 37 °C): 0.9 ± 0.0 nmol/min/mg protein | carrier-mediated transport as share of total uptake clearance (Vero cells [11]; 37 °C): 72% | Pd (sesamol passive diffusion) (Vero cells [11]; 37 °C, sesamol alone): 2.1 ± 0.1^a µL/min/mg | Vmax (sesamol uptake) (Vero cells [11]; 37 °C, sesamol alone): 0.9 ± 0.0^a nmol/min/mg | Km (Vero cells [11]; read-out: Km (sesamol uptake), 4 °C, 1 min): 66.1 ± 20 µM | Km (Vero cells [11]; read-out: Km (sesamol uptake), 37 °C, sesamol alone, 1 min): 160 ± 18.4 µM
